Source: the supplement of paper PMC10307832

Tests used:
Test in all cases: relative viability (nuclei count vs DMSO), 5 days (fraction); higher = more cells survive
IU1-47 + Pictilisib = compound: CC1=CC(=C(N1C2=CC=C(C=C2)Cl)C)C(=O)CN3CCCCC3 [IU1-47] + CS(=O)(=O)N1CCN(Cc2cc3nc(-c4cccc5[nH]ncc45)nc(N4CCOCC4)c3s2)CC1 [Pictilisib] (partner 1 µM)
In short: (§1)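 Five library-drug doses in √10 steps were combined with a fixed anchor-drug dose, or a single drug was given alone, by pin tool to lung cancer cell lines in 1536-well plates the day after seeding. Nuclei were stained and counted after 5 days. Relative viability is the nuclei count in treated wells over that in vehicle wells, taken as the median of duplicate plates.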

FG-4592 + OSI-027 = compound: Cc1nc(C(=O)NCC(=O)O)c(O)c2ccc(Oc3ccccc3)cc12 [FG-4592] + COc1cccc2cc(-c3nc([C@H]4CC[C@H](C(=O)O)CC4)n4ncnc(N)c34)[nH]c12 [OSI-027] (partner 0.5 µM)
In short: as §1

FG-4592 + AZD7762 = compound: Cc1nc(C(=O)NCC(=O)O)c(O)c2ccc(Oc3ccccc3)cc12 [FG-4592] + NC(=O)Nc1cc(-c2cccc(F)c2)sc1C(=O)N[C@H]1CCCNC1 [AZD7762] (partner 0.2 µM)
In short: as §1

IU1-47 + Luminespib = compound: CC1=CC(=C(N1C2=CC=C(C=C2)Cl)C)C(=O)CN3CCCCC3 [IU1-47] + CCNC(=O)c1noc(-c2cc(C(C)C)c(O)cc2O)c1-c1ccc(CN2CCOCC2)cc1 [Luminespib] (partner 0.01 µM)
In short: as §1

Cell Line	relative viability (IU1-47 + Pictilisib; first compound 0.08 µM)	relative viability (IU1-47 + Pictilisib; first compound 0.253 µM)	relative viability (IU1-47 + Pictilisib; first compound 0.8 µM)	relative viability (IU1-47 + Pictilisib; first compound 8 µM)	relative viability (FG-4592 + OSI-027; first compound 0.08 µM)	relative viability (FG-4592 + OSI-027; first compound 0.253 µM)	relative viability (FG-4592 + OSI-027; first compound 0.8 µM)	relative viability (FG-4592 + OSI-027; first compound 2.53 µM)	relative viability (FG-4592 + OSI-027; first compound 8 µM)	relative viability (FG-4592 + AZD7762; first compound 0.08 µM)	relative viability (FG-4592 + AZD7762; first compound 0.253 µM)	relative viability (FG-4592 + AZD7762; first compound 0.8 µM)	relative viability (FG-4592 + AZD7762; first compound 2.53 µM)	relative viability (FG-4592 + AZD7762; first compound 8 µM)	relative viability (IU1-47 + Luminespib; first compound 0.08 µM)	relative viability (IU1-47 + Luminespib; first compound 0.253 µM)	relative viability (IU1-47 + Luminespib; first compound 0.8 µM)	relative viability (IU1-47 + Luminespib; first compound 8 µM)	relative viability (IU1-47 + Pictilisib; first compound 2.53 µM)	relative viability (IU1-47 + Luminespib; first compound 2.53 µM)
201T	0.672	0.682	0.709	0.664	0.683	0.662	0.738	0.815	0.704	0.579	0.595	0.453	0.559	0.555	1.1	1.08	1.15	1.07		
A549	0.637	0.53	0.542	0.423															0.673	
A-427	0.736	0.84	0.789	0.632	0.479	0.393	0.506	0.423	0.598	0.757	0.777	0.665	0.773	0.717	0.999	0.89	0.971	0.872		1.04
ABC-1	0.766	0.711	0.895	0.671	0.548	0.482	0.47	0.501	0.4	0.665	0.762	0.794	1.09	0.693	0.957	1.01	1.02	0.733		
BEN	0.644	0.566	0.583	0.594	0.222	0.287	0.315	0.313	0.299	0.555	0.617	0.476	0.666	0.527	0.362	0.459	0.414	0.344	0.41	
CAL-12T	0.448	0.392	0.537	0.396	0.829	0.663	0.642	0.49	0.333	0.594	0.59	0.513	0.523	0.717	0.878	0.291	0.363	0.495	0.413	0.438
COR-L23	0.936	0.877	0.874	0.905	0.798	0.617	0.793	0.701	0.468						0.836	0.85	0.71	0.675	0.652	0.817
COR-L 105	0.421	0.411	0.352	0.396	0.555	0.602	0.767	0.551	0.435						0.775	0.673	1	0.696	0.379	0.809
Calu-6	1.13	1.07	0.861	0.856															0.972	
ChaGo-K-1	0.753	0.758	0.62	0.43	0.577	0.545	0.532	0.471	0.413	0.846	0.888	0.856	0.93	0.66	0.623	0.618	0.713	0.703	0.457	0.671
EBC-1	0.45	0.387	0.416	0.336															0.501	
EKVX	0.555	0.549	0.459	0.463	0.626	0.649	0.718	0.663	0.73	0.732	0.628	0.758	0.665	0.747	1.01	1.05	0.881	0.978	0.487	1.02
EMC-BAC-2	0.547	0.51	0.545	0.489	0.338	0.407	0.339	0.333	0.344	1.17	0.903	0.901	1.08	1	1.4	1.32	1.28	0.93	0.572	1.26
EPLC-272H	0.301	0.318	0.313	0.185	0.348	0.206	0.285	0.29	0.232	0.194	0.426	0.224	0.181	0.15	0.382	0.261	0.221	0.315		
H3255	0.542	0.431	0.488	0.522	0.573	0.576	0.626	0.617	0.62	0.902	0.802	0.995	0.754	0.831	1.09	1	0.757	0.888	0.537	0.41
HARA	0.407	0.504	0.371	0.336	0.334	0.335	0.434	0.392	0.234				0.251	0.431	0.858	0.98	1.66	0.49	0.509	
HCC-15	0.8	0.703	0.76	0.65	0.626	0.626	0.674	0.614	0.701	1.29	1.25	1.14	1.18	1.25	0.442	0.379	0.389	0.358	0.427	
HCC-44	0.551	0.603	0.665	0.593	0.504	0.489		0.476	0.377	0.993	1.01	1.16	1.06	0.997	1.17	1.03	1.11	1.21	0.672	0.987
HCC-78	0.192	0.19	0.218	0.206	0.346	0.307	0.406	0.357	0.362	0.558		0.534	0.625	0.662					0.189	
HCC-366	0.215	0.115	0.149	0.145	0.455	0.934	0.784	0.484	0.703	0.243	0.248	0.28	0.364	0.269					0.137	
HCC-827	1.27	1.1	1.14	1.1	0.677	0.727	0.8	0.669	0.593	0.23	0.173	0.326	0.184	0.22	0.819	0.588	0.818	0.648	0.957	0.573

Cell Line	relative viability (IU1-47 + Pictilisib; first compound 0.08 µM)	relative viability (IU1-47 + Pictilisib; first compound 0.253 µM)	relative viability (IU1-47 + Pictilisib; first compound 0.8 µM)	relative viability (IU1-47 + Pictilisib; first compound 8 µM)	relative viability (FG-4592 + OSI-027; first compound 0.08 µM)	relative viability (FG-4592 + OSI-027; first compound 0.253 µM)	relative viability (FG-4592 + OSI-027; first compound 0.8 µM)	relative viability (FG-4592 + OSI-027; first compound 2.53 µM)	relative viability (FG-4592 + OSI-027; first compound 8 µM)	relative viability (FG-4592 + AZD7762; first compound 0.08 µM)	relative viability (FG-4592 + AZD7762; first compound 0.253 µM)	relative viability (FG-4592 + AZD7762; first compound 0.8 µM)	relative viability (FG-4592 + AZD7762; first compound 2.53 µM)	relative viability (FG-4592 + AZD7762; first compound 8 µM)	relative viability (IU1-47 + Luminespib; first compound 0.08 µM)	relative viability (IU1-47 + Luminespib; first compound 0.253 µM)	relative viability (IU1-47 + Luminespib; first compound 0.8 µM)	relative viability (IU1-47 + Luminespib; first compound 8 µM)	relative viability (IU1-47 + Pictilisib; first compound 2.53 µM)	relative viability (IU1-47 + Luminespib; first compound 2.53 µM)
HOP-62	0.966	0.891	0.818	0.524	0.839	0.736	0.814	0.722	0.713	0.501	0.509	0.476	0.472	0.529	0.957	0.964	1.04	1.06	0.494	0.925
IA-LM	0.333	0.374	0.306	0.348															0.394	
LC-2-ad	0.428	0.509	0.427	0.45	0.838	0.753		0.591	0.661	0.912	0.833	0.831	0.817	0.83	1.23	1.04	0.883	1.15	0.423	0.766
LCLC-97TM1	0.194	0.258	0.204	0.165	0.665	0.397	0.716	0.488	0.395	0.255	0.173	0.274	0.132	0.315	0.846	0.757	0.834	0.787		0.716
NCI-H520	0.303	0.297	0.378	0.237	0.234	0.285	0.286	0.257	0.205						0.259	0.238	0.248	0.248	0.331	0.285
NCI-H522					0.739	0.738	0.727	0.594	0.574	0.78	0.717		0.666	0.819	1.32	1.27	1.35	1.23		0.864
NCI-H661	0.376	0.406	0.414	0.363	0.712	0.688	0.688	0.763	0.668						0.901	0.936	1.01	0.877	0.349	0.924
NCI-H1299	0.893	0.881	0.749	0.911															1.05	
NCI-H1563	0.69	0.672	0.663	0.732	0.78	0.785	0.718	0.701	0.606						0.468	0.52	0.538	0.497	0.627	0.506
NCI-H1623					0.447	0.447	0.468	0.416	0.419						0.602	0.611	0.519	0.661		0.456
NCI-H1648					0.275	0.285	0.302	0.258	0.28	0.622	0.662		0.714	0.921						
NCI-H1650	0.634	0.587	0.682	0.27	0.523	0.603	0.839	0.621	0.634						0.169	0.201	0.18	0.221	0.295	0.175
NCI-H1703	0.254	0.255	0.218	0.25						0.138	0.135	0.12		0.126					0.32	
NCI-H2009	0.876	0.948	0.815	0.882	0.591	0.565	0.621	0.476	0.605						1.09	1.04	0.986	1.05	0.369	1.01
NCI-H2023	0.22	0.214	0.274	0.182	0.402	0.359	0.428	0.356	0.241						0.777	0.902	0.913	0.768	0.178	0.885
NCI-H2228	0.497	0.506	0.28	0.229	0.596	0.402	0.42	0.643	0.376						0.154	0.122	0.162	0.132	0.28	0.144
NCI-H2342					0.594	0.648	0.631	0.585	0.57	0.456	0.459	0.526	0.403	0.438	0.698	0.679	0.775	0.745		0.713
SK-LU-1	0.668	0.728	0.578	0.382	0.3	0.177	0.349	0.345	0.239						0.202	0.197	0.204	0.207	0.58	0.238
SK-MES-1	0.402	0.396	0.351	0.371	0.568	0.585	0.546	0.483	0.453						0.965	0.891	0.87	0.839	0.398	0.897
SW 900					0.424	0.546	0.493	0.491	0.534		0.545		0.614	0.541	0.191	0.172	0.181	0.194		0.176
SW 1573	0.524	0.563	0.391	0.471	0.556	0.537	0.63	0.536	0.561						0.196	0.179	0.129	0.23	0.553	0.261
